Results: patent US20140243415A1, “COMPOUNDS INHIBITING GALECTIN-1 EXPRESSION, CANCER CELL PROLIFERATION, INVASION, AND TUMORIGENESIS” (ONCOETHIX SA, priority 2011, published 2014)

Legend:
wee1 (serine 642) = assay: Western blot of phosphorylated wee1 in SQ20B; type: cell-based, human; settings: 3 μM OTX-008 for 72 h
Description: (§1) Cells were lysed in buffer containing 50 mM HEPES (pH 7.6), 150 mM NaCl, 1% Triton X-100, 2 mM sodium vanadate, 100 mM NaF, and 0.4 mg/ml phenylmethylsulfonyl fluoride. Equal amounts of protein (30 μg/lane) were subjected to SDS-PAGE and transferred to nitrocellulose membranes. Membranes were blocked with 5% milk in 0.05% Tween 20/phosphate-buffered saline and then incubated with the primary antibody overnight. Membranes were then washed and incubated with the secondary antibody conjugated to horseradish peroxidase. Bands were visualized by using the enhanced chemiluminescence Western blotting detection system. Densitometric analysis was performed under conditions that yielded a linear response. The following antibodies were used: anti-p-cdc2 (tyr15), anti-p-wee1 (ser642), anti-p-p44/42 MAPK (thr202/tyr204), anti-p44/42, anti-p-AKT (ser473), anti-AKT, anti-p-S6 (ser235/236) (Cell Signaling, Saint Quentin Yvelines, France), anti-p-PKCα (ser657) (BD Biosciences, Le-Pont-de-Claix, France) and anti-galectin-1 (Abcam, Cambridge, Mass., USA). All antibodies were used at a 1:1000 dilution.
(§2) To study the mechanism of OTX-008-induced inhibition of cell proliferation, the effect of OTX-008 on cell cycle in SQ20B cells was examined (FIG. 5B). […] Activation of cdc2 (cdk1) by de-phosphorylation of tyrosine 15 is required for G2/M transition. […]

galectin-1 [1] = target: T1, galectin-1 (Homo sapiens, UniProt P09382); assay: Western blot of galectin-1 in SQ20B cells; type: cell-based; settings: 3 μM OTX-008, 48 and 72 h exposure
T1 construct: Western Blot of galectin-1 on SQ20B cells treated with 3 μM OTX-008 for 24 h, 48 h and 72 h; endogenous in cells; host or cells: SQ20B (ATCC)
T1 sequence (P09382 whole entry): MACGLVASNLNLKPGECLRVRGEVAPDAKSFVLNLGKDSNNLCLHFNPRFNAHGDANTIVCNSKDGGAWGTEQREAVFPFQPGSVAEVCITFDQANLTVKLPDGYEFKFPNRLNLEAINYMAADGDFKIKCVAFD
Description: (§3) FIG. 3. Effects of OTX-008 on galectin-1 expression and localization. A—Western Blot of galectin-1 on SQ20B cells treated with 3 μM OTX-008 for 24 h, 48 h and 72 h. B and C—Immunofluorescence of galectin-1 on SQ20B cells treated with 3 μM OTX-008 for 24 and 48 h. B—OTX-008 treatment decreases galectin-1 immunostaining in SQ20B cells. C—Galectin-1 translocates into the nucleus after OTX-008 exposure. D—Western Blot of p-AKTser473, AKT, p-S6, p-ERK1/2, ERK and p-PKCα in SQ20B cells treated with 3 μM OTX-008 for 10 min, 1 h, 2 h, 5 h and 24 h.
FIG. 4. OTX-008-induced galectin-1 oxydation and degradation by the proteosome system A—Western Blot of galectin-1 on SQ20B cells treated 48 h with 10 μM N-acetylcysteine (NAC), 55 μM β-mercaptoethanol (βME), 1 mM Tempol and 10 μM co-enzyme Q10 (Q10) with or without 3 μM OTX-008. B—Western Blot of galectin-1 on SQ20B cells treated 48 h with 3 μM OTX-008, pretreated 2 h with proteasome inhibitor Bortezomib (10 nM) and then treated 48 h with 3 μM OTX-008 (BTZ—OTX-008) or treated 48 h with 10 nM Bortezomib+3 μM OTX-008 (BTZ+OTX-008).
Cells were lysed in buffer containing 50 mM HEPES (pH 7.6), 150 mM NaCl, 1% Triton X-100, 2 mM sodium vanadate, 100 mM NaF, and 0.4 mg/ml phenylmethylsulfonyl fluoride. Equal amounts of protein (30 μg/lane) were subjected to SDS-PAGE and transferred to nitrocellulose membranes. […]

cdc2 (tyrosine 15) = assay: Western blot of phosphorylated cdc2 in SQ20B; type: cell-based, human; settings: 3 μM OTX-008 for 72 h
Description: as §1, §2

galectin-1 [2] = target: T1, galectin-1; assay: Immunofluorescence of galectin-1 in SQ20B cells; type: cell-based
Description: as §3
The cells were grown on cover slips at 37° C. overnight. The growth media was then removed; the cells were washed with PBS and fixed in 4% of paraformaldhyde for 15 min and permeabilized with PBS/tritonX100 (1:500) then washed again with PBS. Incubation with primary antibodies was performed at 4° C. overnight (galectin-1, 1:100; Abcam, Cambridge, Mass., USA), followed by the incubation with the secondary antibodies (anti-mouse, 1:100; Cell Signaling, Saint Quentin Yvelines, France) for 1 h at room temperature in the dark. The nuclei were stained with Dapi 1:10000 (Santa Cruz Biotechnology, Santa Cruz, Calif., USA). The images were captured and analyzed with a Zeiss observer Z1 microscope. Images quantification was performed using Histolab Software (Microvision, France) subtracting the background. Magnification ×20 and ×40.

CN(C)CCNC(=O)COc1c2cccc1Cc1cccc(c1OCC(=O)NCCN(C)C)Cc1cccc(c1OCC(=O)NCCN(C)C)Cc1cccc(c1OCC(=O)NCCN(C)C)C2 [OTX-008]
wee1 phosphorylation on serine 642 (wee1 (serine 642)): decreased inactivating phosphorylation of wee1 | galectin-1 protein expression (galectin-1 [1]): decreased galectin-1 protein expression | cdc2 activity (phosphorylation on tyrosine 15) (cdc2 (tyrosine 15)): inactivated cdc2 | galectin-1 localization (galectin-1 [2]; 3 μM OTX-008): translocates from the cytoplasm to the nucleus | galectin-1 expression in the cytoplasm (immunofluorescence) (galectin-1 [2]; 3 μM OTX-008, 24 and 48 h): decrease galectin-1 expression
